Reference: patent US10766869B2, “Triazoles for the treatment of demyelinating dieases” (Vertex Pharmaceuticals Incorporated, priority 2015, dated 2020)

Test system: primary rat mixed cortical cells
Assay: In vitro myelination assay (MBP positive myelin strands, fold myelin pixels above background)
Assay type: cell-based
Settings: Rattus norvegicus, relative to baseline of no added compound; for fold induction at 1 µM: 1.0 μM compound, read-out: Fold myelin pixels above background, 1.0 μM; for fold induction at 10 µM: 10.0 μM compound, read-out: Fold myelin pixels above background, 10.0 μM
Outline: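 P1 rat mixed cortical cultures (neurons, OPCs, oligodendrocytes, astrocytes, microglia) grown 14 days at 37 °C with compound, half-medium refreshed with compound on days 6 and 10. Fixed cells stained for MBP; MBP-positive myelin strand pixels per well quantified by automated imaging, reported as fold over no-compound baseline at 1.0 and 10.0 μM.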

Compound: Fc1cc(Nc2ncn(-c3ccc(F)c(F)c3)n2)cc(N2CCCC2)c1 [Compound 99, 1-(3,4-difluorophenyl)-N-(3-fluoro-5-pyrrolidin-1-yl-phenyl)-1,2,4-triazol-3-amine]
- fold induction at 1 µM: ≤ 1
- fold induction at 10 µM: ≤ 1

Compound: Fc1ccc(-n2cnc(Nc3cc(Cl)nc(N4CCOCC4)c3)n2)cc1F [Compound 100, 2-chloro-N-[1-(3,4-difluorophenyl)-1,2,4-triazol-3-yl]-6-morpholino-pyridin-4-amine]
- fold induction at 1 µM: 100 to 1000
- fold induction at 10 µM: 100 to 1000

Compound: COc1cc(Nc2ncn(-c3ccc(F)cc3)n2)cc(N2CCN(C3COC3)CC2)c1 [Compound 102, 1-(4-fluorophenyl)-N-[3-methoxy-5-[4-(oxetan-3-yl)piperazin-1-yl]phenyl]-1,2,4-triazol-3-amine]
- fold induction at 1 µM: 100 to 1000
- fold induction at 10 µM: 1 to 10

Compound: CCC1CCCN1c1cc(F)cc(-n2cnc(Nc3cc(C)cc(N4CCN(C5COC5)CC4)c3)n2)c1 (stereo not shown) [Compound 103, 1-[3-(2-ethylpyrrolidin-1-yl)-5-fluoro-phenyl]-N-[3-methyl-5-[4-(oxetan-3-yl)piperazin-1-yl]phenyl]-1,2,4-triazol-3-amine]
- fold induction at 1 µM: 100 to 1000
- fold induction at 10 µM: ≤ 1

Compound: Cc1cc(Nc2ncn(-c3ccccn3)n2)cc(N2CCN(C3COC3)CC2)c1 [Compound 104, N-[3-methyl-5-[4-(oxetan-3-yl)piperazin-1-yl]phenyl]-1-(2-pyridyl)-1,2,4-triazol-3-amine]
- fold induction at 1 µM: 10 to 100
- fold induction at 10 µM: 100 to 1000

Compound: Fc1cc(F)cc(-n2cnc(Nc3cc(C4CC4)nc(N4CC[C@@H](F)C4)c3)n2)c1 [Compound 105, 2-cyclopropyl-N-[1-(3,5-difluorophenyl)-1,2,4-triazol-3-yl]-6-[(3R)-3-fluoropyrrolidin-1-yl]pyridin-4-amine]
- fold induction at 1 µM: 100 to 1000
- fold induction at 10 µM: 1 to 10

Compound: COc1cccc(-n2cnc(Nc3cc(Cl)nc(N4CCCCC4)c3)n2)c1 [Compound 106, 2-chloro-N-[1-(3-methoxyphenyl)-1,2,4-triazol-3-yl]-6-(1-piperidyl)pyridin-4-amine]
- fold induction at 1 µM: ≤ 1
- fold induction at 10 µM: 1 to 10

Compound: Cc1cc(Nc2ncn(-c3cc(F)cc(F)c3)n2)cc(C2CCNCC2)c1 [Compound 108, 1-(3,5-difluorophenyl)-N-[3-methyl-5-(4-piperidyl)phenyl]-1,2,4-triazol-3-amine]
- fold induction at 1 µM: 10 to 100
- fold induction at 10 µM: ≤ 1

Compound: CN(C)C1CCN(c2cc(F)cc(Nc3ncn(-c4cccc(F)c4)n3)c2)C1 (stereo not shown) [Compound 109, N-[3-[3-(dimethylamino)pyrrolidin-1-yl]-5-fluoro-phenyl]-1-(3-fluorophenyl)-1,2,4-triazol-3-amine]
- fold induction at 1 µM: 10 to 100
- fold induction at 10 µM: ≤ 1

Compound: Cc1cc(Nc2ncn(-c3ccccc3)n2)cc(N2CCCC2)c1 [Compound 110, N-(3-methyl-5-pyrrolidin-1-yl-phenyl)-1-phenyl-1,2,4-triazol-3-amine]
- fold induction at 1 µM: 100 to 1000
- fold induction at 10 µM: 1 to 10

Compound: Cc1cc(Nc2ncn(-c3cc(C)ncn3)n2)cc(N2CCN(C3COC3)CC2)c1 [Compound 111, N-[3-methyl-5-[4-(oxetan-3-yl)piperazin-1-yl]phenyl]-1-(6-methylpyrimidin-4-yl)-1,2,4-triazol-3-amine]
- fold induction at 1 µM: 10 to 100
- fold induction at 10 µM: 100 to 1000

Compound: Fc1cc(Nc2ncn(-c3cc(F)cc(F)c3)n2)cc(N2CCN(C3COC3)CC2)c1 [Compound 112, 1-(3,5-difluorophenyl)-N-[3-fluoro-5-[4-(oxetan-3-yl)piperazin-1-yl]phenyl]-1,2,4-triazol-3-amine]
- fold induction at 1 µM: 1000 to 10000
- fold induction at 10 µM: 100 to 1000

Compound: Cc1cc(Nc2ncn(-c3ccc(F)c(F)c3)n2)cc(NC2CCN(C3COC3)C2)c1 (stereo not shown) [Compound 113, N3-[1-(3,4-difluorophenyl)-1,2,4-triazol-3-yl]-5-methyl-N1-[1-(oxetan-3-yl)pyrrolidin-3-yl]benzene-1,3-diamine]
- fold induction at 1 µM: 1000 to 10000
- fold induction at 10 µM: ≤ 1

Compound: Cc1cc(Nc2ncn(-c3cc(F)cc(F)c3)n2)cc(N2CCCC(N3CCCC3=O)C2)c1 (stereo not shown) [Compound 114, 1-[1-[3-[[1-(3,5-difluorophenyl)-1,2,4-triazol-3-yl]amino]-5-methyl-phenyl]-3-piperidyl]pyrrolidin-2-one]
- fold induction at 1 µM: 10 to 100
- fold induction at 10 µM: 10 to 100

Compound: CC(=O)N1CCCC(Nc2cc(C)cc(Nc3ncn(-c4ccccc4)n3)c2)C1 (stereo not shown) [Compound 115, 1-[3-[3-methyl-5-[(1-phenyl-1,2,4-triazol-3-yl)amino]anilino]-1-piperidyl]ethanone]
- fold induction at 1 µM: 100 to 1000
- fold induction at 10 µM: 100 to 1000

Compound: COCC1CN(c2cc(C)cc(Nc3ncn(-c4cc(F)cc(F)c4)n3)c2)C1 [Compound 116, 1-(3,5-difluorophenyl)-N-[3-[3-(methoxymethyl)azetidin-1-yl]-5-methyl-phenyl]-1,2,4-triazol-3-amine]
- fold induction at 1 µM: ≤ 1
- fold induction at 10 µM: ≤ 1

Compound: CC(=O)N1CCCC(c2cc(C)cc(Nc3ncn(-c4ccccc4)n3)c2)C1 (stereo not shown) [Compound 117, 1-[3-[3-methyl-5-[(1-phenyl-1,2,4-triazol-3-yl)amino]phenyl]-1-piperidyl]ethanone]
- fold induction at 1 µM: 1000 to 10000
- fold induction at 10 µM: ≤ 1

Compound: Cc1cc(Nc2ncn(-c3ccccc3)n2)cc(N2CCN(C3COC3)CC2)c1 [Compound 118, N-[3-methyl-5-[4-(oxetan-3-yl)piperazin-1-yl]phenyl]-1-phenyl-1,2,4-triazol-3-amine]
- fold induction at 1 µM: 100 to 1000
- fold induction at 10 µM: 10 to 100

Compound: Cc1cc(Nc2ncn(-c3cc(F)cc(F)c3)n2)cc(N2CCN(C)C(C)C2)c1 (stereo not shown) [Compound 119, 1-(3,5-difluorophenyl)-N-[3-(3,4-dimethylpiperazin-1-yl)-5-methyl-phenyl]-1,2,4-triazol-3-amine]
- fold induction at 1 µM: 100 to 1000
- fold induction at 10 µM: 10 to 100

Compound: Cc1cc(Nc2ncn(-c3ccccc3)n2)cc(C2CCN(C3CC3)CC2)c1 [Compound 120, N-[3-(1-cyclopropyl-4-piperidyl)-5-methyl-phenyl]-1-phenyl-1,2,4-triazol-3-amine]
- fold induction at 1 µM: 1000 to 10000
- fold induction at 10 µM: ≤ 1

Compound: Fc1cc(-n2cnc(Nc3cc(C4CC4)cc(N4CCN(C5COC5)CC4)c3)n2)cc(F)n1 [Compound 121, N-[3-cyclopropyl-5-[4-(oxetan-3-yl)piperazin-1-yl]phenyl]-1-(2,6-difluoro-4-pyridyl)-1,2,4-triazol-3-amine]
- fold induction at 1 µM: 100 to 1000
- fold induction at 10 µM: ≤ 1

Compound: COCC1CCN(c2cc(C)cc(Nc3ncn(-c4ccnc(F)c4)n3)c2)CC1 [Compound 122, 1-(2-fluoro-4-pyridyl)-N-[3-[4-(methoxymethyl)-1-piperidyl]-5-methyl-phenyl]-1,2,4-triazol-3-amine]
- fold induction at 1 µM: 10 to 100
- fold induction at 10 µM: 1000 to 10000

Compound: CC(C)(O)[C@@H]1CN(c2cc(Nc3ncn(-c4cc(F)cc(F)c4)n3)cc(C(F)(F)F)c2)CCN1 [Compound 123, 2-[(2S)-4-[3-[[1-(3,5-difluorophenyl)-1,2,4-triazol-3-yl]amino]-5-(trifluoromethyl)phenyl]piperazin-2-yl]propan-2-ol]
- fold induction at 1 µM: 1 to 10
- fold induction at 10 µM: ≤ 1

Compound: CCc1cc(Nc2ncn(-c3cnccn3)n2)cc(N2CCNCC2)c1 [Compound 124, N-(3-ethyl-5-piperazin-1-yl-phenyl)-1-pyrazin-2-yl-1,2,4-triazol-3-amine]
- fold induction at 1 µM: 1000 to 10000
- fold induction at 10 µM: ≤ 1

Compound: Cc1cc(Nc2ncn(-c3cc(F)cc(F)c3)n2)cc(N2CCN(CC(=O)O)CC2)c1 [Compound 125, 2-[4-[3-[[1-(3,5-difluorophenyl)-1,2,4-triazol-3-yl]amino]-5-methyl-phenyl]piperazin-1-yl]acetic acid]
- fold induction at 1 µM: 10 to 100
- fold induction at 10 µM: 1 to 10

Compound: Cc1cc(Nc2ncn(-c3ccccc3)n2)cc(N2CCN(C3CCOC3C)CC2)c1 (stereo not shown) [Compound 127, N-[3-methyl-5-[4-(2-methyltetrahydrofuran-3-yl)piperazin-1-yl]phenyl]-1-phenyl-1,2,4-triazol-3-amine]
- fold induction at 1 µM: 1000 to 10000
- fold induction at 10 µM: 1 to 10

Compound: Cc1cc(Nc2ncn(-c3cc(F)cc(F)c3)n2)cc(N2CCN3CCC[C@@H]3C2)c1 [Compound 128, N-[3-[(8aR)-3,4,6,7,8,8a-hexahydro-1H-pyrrolo[1,2-a]pyrazin-2-yl]-5-methyl-phenyl]-1-(3,5-difluorophenyl)-1,2,4-triazol-3-amine]
- fold induction at 1 µM: 10 to 100
- fold induction at 10 µM: 10 to 100

Compound: Cc1cc(-n2cnc(Nc3cc(C4CC4)cc(N4CCN(C5COC5)CC4)c3)n2)nc(C)n1 [Compound 129, N-[3-cyclopropyl-5-[4-(oxetan-3-yl)piperazin-1-yl]phenyl]-1-(2,6-dimethylpyrimidin-4-yl)-1,2,4-triazol-3-amine]
- fold induction at 1 µM: ≤ 1
- fold induction at 10 µM: ≤ 1

Compound: Fc1cc(F)cc(-n2cnc(Nc3cc(N4CCN(C5COC5)CC4)cc(C(F)(F)F)c3)n2)c1 [Compound 130, 1-(3,5-difluorophenyl)-N-[3-[4-(oxetan-3-yl)piperazin-1-yl]-5-(trifluoromethyl)phenyl]-1,2,4-triazol-3-amine]
- fold induction at 1 µM: 1000 to 10000
- fold induction at 10 µM: 100 to 1000

Compound: Cc1cc(Nc2ncn(-c3cc(F)cc(F)c3)n2)cc(C2COC2)c1 [Compound 131, 1-(3,5-difluorophenyl)-N-[3-methyl-5-(oxetan-3-yl)phenyl]-1,2,4-triazol-3-amine]
- fold induction at 1 µM: 10 to 100
- fold induction at 10 µM: 1000 to 10000

Compound: CCc1cc(Nc2ncn(-c3ccnc(SC)n3)n2)cc(N2CCN(C3COC3)CC2)c1 [Compound 132, N-[3-ethyl-5-[4-(oxetan-3-yl)piperazin-1-yl]phenyl]-1-(2-methylsulfanylpyrimidin-4-yl)-1,2,4-triazol-3-amine]
- fold induction at 1 µM: 1 to 10
- fold induction at 10 µM: 1 to 10

Compound: Cc1cc(Nc2ncn(-c3ccccc3)n2)cc(N2CCN(C)C(C)C2)c1 (stereo not shown) [Compound 133, N-[3-(3,4-dimethylpiperazin-1-yl)-5-methyl-phenyl]-1-phenyl-1,2,4-triazol-3-amine]
- fold induction at 1 µM: 1000 to 10000
- fold induction at 10 µM: ≤ 1
